Data on two compounds can be found in patent US8933295B2, “Identifying agents to treat alzheimer's disease-related decreased sorting behavior by administration to a triple transgenic mouse expressing mutant forms of APP, presenilin or tau” (Janssen Biotech, Inc., priority 2008, dated 2015).

Entries after “also recorded” stand apart in the source; their conditions may differ.

The assay deals with 3×Tg-AD mice. The experiment in a line: Sorting Activity Test (SAT), bedding sorting score, tricyclic antidepressants. It is filed as in vivo, mouse. Particulars: for mean sorting score over the course of the study: 6 cages x 7 weeks; for mean sorting score over the course of the study / mean sorting score: score 0-4; for mean sorting score: day 7 after bedding change, 6 cages, dosed once daily Mon-Fri. The source says:
The 3×Tg-AD mice developed by LaFerla et al., at the University of California at Irvine (Neuron 2003b) were used in the study. These mice harbor mutations in three different genes: the β-amyloid precursor protein (APPSweKM→NL), presenilin-1 (PS1M146V) and tau (P301L). […] Intracellular A-beta peptide immunoreactivity has been reported to appear by as early as three months of age and extracellular A-beta deposits in evidence between six and 12 months of age (Oddo et al., 2003a, 2003b). In the cohort of mice used in the present studies, these hallmarks of AD were not observed until 19 months of age by immunohistochemical methods.
Triple transgenic (3×Tg-AD) mice and corresponding non-transgenic control mice were weaned and group housed four (4) mice per cage in large static microisolator caging composed of a tinted polycarbonate cage, stainless steel lid, and polycarbonate filtered top at Ace Animals, Inc. Mice were fed 5% Fat Purina Autoclavable Breeder Diet (Item #RHI5R24CGP) and provided reverse osmosis chlorinated water ad libitum within a barrier environment in an environmentally controlled facility (22° C., 40-60% relative humidity) with a 12:12-hour light: dark cycle. Health status reports certify that all animals were free of known viral, bacterial, and parasitic pathogens.
The unique factor within this colony was the use of a combination corncob and papered bedding (AlphaCobb® cat #ALPHA4B, Animal Specialties and Provisions, Quakertown, Pa.). The mice were 8 weeks of age at the start of the study.
Mice were housed 2 per cage, 6 cages per group: Non-transgenic control, untreated, 3×Tg-AD, untreated, 3×Tg-AD, Desipramine, 30 mg/kg, and 3×Tg-AD, Imipramine. All mice were approximately two months of age at the start of the study. Mice were dosed once daily, Monday through Friday with test article. Cages were photographed weekly on Day 7, and cage bedding was changed once per week after photographs were taken.
In order to quantify the sorting behavior of the mice in this study, a scoring system was devised. Before the start of the initial study the mice were observed. It was evident that the sorting behavior was not an “all or nothing” phenomenon, but rather existed in degrees. After observing the cages for some time, scoring criteria were established.
In these cages, the two types of bedding were equally mixed throughout the cage. There was no area where one bedding type was more concentrated.
In these cages, a small area of white bedding was seen, usually piled in a corner. The two types of bedding were equally mixed throughout the rest of the cage.
A score of 2 was given to cages when the white area of bedding was more pronounced, yet the bedding throughout the rest of the cage was still mixed.
A score of 3 was given to cages when the white area was very clearly defined, and very little white bedding was left mixed with the Alpha Cobb.
A score of 4 was given to cages when the two types of bedding were almost completely separated from each other.
The degree of sorting at the end of each 7 day period (before the cages were changed) was scored using this system.
Using the scoring system devised and making daily observations of the cages, the behavior patterns of the non-transgenic control mice could be clearly distinguished from the 3×Tg-AD mice within a matter of a couple days, but was most prominent after Day 3. At Day 7 before each bedding change, the bedding of each cage was digitally photographed and scored. Table 1 provides the mean score and standard deviation (SD) for each group of mice for each week observed.
Data was analyzed using GraphPad Prism software with ANOVA one-way analysis of variance followed by Dunnett's multiple comparison test. All groups (6 cages×7 weeks) were compared to untreated 3×TgAD group. Significance was defined as p<0.05.

With `CNCCCN1c2ccccc2CCc2ccccc21` [DESIPRAMINE, Desipramine], the “mean sorting score over the course of the study” value turned out to be 0.67. In addition, the “sorting behavior, in words” value (treated 3×Tg-AD mice compared to untreated Tg mice) is recorded as “regained some of the behavior; also recorded: greater effect than imipramine”. Also, the mean sorting score (week 1) came out at 0.00. The mean sorting score (week 2) is 0.50. Under “week 3”, the mean sorting score was 1.17. Also, the mean sorting score (week 4) worked out at 0.83. Further, the mean sorting score (week 5) is 0.83. Besides, the mean sorting score (week 6) was found to be 0.50. Further, where the note is “week 7”, the mean sorting score is listed as 0.83.
On to `CN(C)CCCN1c2ccccc2CCc2ccccc21` [IMIPRAMINE, Imipramine], for which the “mean sorting score over the course of the study” value stood at 0.31. In addition, where the note is “week 1”, the mean sorting score came to 0.00. For the same compound, the mean sorting score (week 2) worked out at 0.67. For the same compound, the mean sorting score (week 3) was 0.17. In addition, the mean sorting score (week 4) is recorded as 0.33. Also, where the note is “week 5”, the mean sorting score was 0.33. The mean sorting score (week 6) is recorded as 0.33. For the same compound, where the note is “week 7”, the mean sorting score is reported as 0.33.
